Tests used:
Assay in all cases: competitive gel-based ABPP
Type in all cases: cell-based
[1] = biological target: T1, FAAH (Rattus norvegicus, UniProt P97612)
T1 sequence (P97612 1-579): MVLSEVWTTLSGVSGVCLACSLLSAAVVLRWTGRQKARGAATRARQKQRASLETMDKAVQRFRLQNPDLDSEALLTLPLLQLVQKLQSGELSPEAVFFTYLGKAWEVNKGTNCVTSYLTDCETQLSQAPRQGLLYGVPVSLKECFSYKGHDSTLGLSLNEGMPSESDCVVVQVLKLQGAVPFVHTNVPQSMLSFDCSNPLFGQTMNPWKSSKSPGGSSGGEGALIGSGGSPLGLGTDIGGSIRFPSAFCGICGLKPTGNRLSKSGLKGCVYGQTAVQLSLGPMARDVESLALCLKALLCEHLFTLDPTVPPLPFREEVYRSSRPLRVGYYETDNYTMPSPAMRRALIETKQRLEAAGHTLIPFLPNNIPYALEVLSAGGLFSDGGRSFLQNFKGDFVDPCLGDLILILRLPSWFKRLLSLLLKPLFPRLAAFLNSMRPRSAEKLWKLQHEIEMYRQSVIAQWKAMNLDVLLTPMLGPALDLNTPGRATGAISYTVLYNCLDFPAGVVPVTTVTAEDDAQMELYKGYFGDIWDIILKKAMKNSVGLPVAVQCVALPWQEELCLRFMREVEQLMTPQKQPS

[2] = biological target: T2, ABHD6 (Rattus norvegicus, UniProt Q5XI64)
T2 sequence (Q5XI64 1-337): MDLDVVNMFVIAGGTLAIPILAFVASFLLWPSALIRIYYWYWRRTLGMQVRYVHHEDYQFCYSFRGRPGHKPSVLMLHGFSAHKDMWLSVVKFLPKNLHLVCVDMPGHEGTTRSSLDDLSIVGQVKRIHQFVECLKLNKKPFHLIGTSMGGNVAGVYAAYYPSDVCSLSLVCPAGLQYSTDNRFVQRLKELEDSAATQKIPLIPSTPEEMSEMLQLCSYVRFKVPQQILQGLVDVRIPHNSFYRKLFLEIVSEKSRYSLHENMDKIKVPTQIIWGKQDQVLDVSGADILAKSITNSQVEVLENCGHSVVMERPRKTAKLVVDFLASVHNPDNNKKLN

[3] = biological target: T3, MAGL (Rattus norvegicus, UniProt Q8R431)
T3 sequence (Q8R431 1-303): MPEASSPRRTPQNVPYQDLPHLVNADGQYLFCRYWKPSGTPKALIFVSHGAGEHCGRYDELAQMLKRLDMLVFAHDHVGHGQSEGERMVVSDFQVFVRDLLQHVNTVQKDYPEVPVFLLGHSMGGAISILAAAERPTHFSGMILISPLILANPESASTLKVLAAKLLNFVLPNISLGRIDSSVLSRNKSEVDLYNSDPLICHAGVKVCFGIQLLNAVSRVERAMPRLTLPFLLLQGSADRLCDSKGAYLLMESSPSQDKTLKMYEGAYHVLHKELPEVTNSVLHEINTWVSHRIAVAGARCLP

O=C(N1CCN(C(c2ccccc2)c2ccccc2)CC1)n1cncn1 [AKU-005]
% inhibition at 100 nM [1]: 79 | % inhibition at 100 nM [2]: 30 | % inhibition at 100 nM [3]: 79

Source: PMC12016430 (The Journal of Headache and Pain, 2025)
